Read-outs that look alike come from different tables or passages of the source. Marks after values point to notes of the source that are not given here.
Legend:
NaChBac = NaChBac (Halalkalibacterium halodurans (Bacillus halodurans), UniProt Q9KCR8, S273L); experiment: cell-based; format: cell-based
[1] = system: CHO-K1 cells or COS-7 cells; experiment: Ca2+/Na+ selectivity of wt and mutant NaChBac, reversal potential under bi-ionic conditions (Example 2); format: cell-based; conditions: external solution 80 NMDG-Cl, 50 CaCl2, 20 HEPES
Procedure: Unless otherwise stated, the pipette solution contained (in mM); 147 Cs, 120 methanesulfonate, 8 NaCl, 10 EGTA, 2 Mg^2+-adenosine triphosphate, and 20 HEPES (pH 7.4). Bath solution contained (in mM); 140 NaCl, 10 CaCl2, 5 KCl, 10 HEPES (pH 7.4), and 10 glucose. For some experiments, NaCl was isotonically replaced by CaCl2.
For reversal potential measurements to determine the relative permeabilities of Na^+ and Ca^2+, the internal pipette solution contained (in mM): 100 mM Na-Gluconate, 10 NaCl, 10 EGTA, 20 HEPES-Na (pH 7.4 adjusted with NaOH, [Na^+]total=140). The external solution was (in mM): 140 NMDG-Cl, 10 CaCl2, 20 HEPES (pH 7.4 adjusted with HCl) or 80 NMDG-Cl, 50 CaCl2, and 20 HEPES. The fast kinetics and small current amplitude of SKM1 in 10 mM [Ca^2+]o necessitated the use of 50 mM [Ca^2+]o for accurate determination of Erev. The permeability ratio of Ca2+ was estimated according to the following equation: PCa/Px=asi(exp(ErevF/RT)[(exp(ErevF/RT)+1]/(4ase) where R, T, F, and Erev are the gas constant, absolute temperature, Faraday constant, and reversal potential, respectively, and x represents Cs^+ or Na^+ (i, internal; e, external) (Hille 2001). For calculations of membrane permeability, activity coefficients for Ca^2+, Cs^+ and Na^+ were estimated as follows: as=γs[Xs] where activity, as, is the effective concentration of an ion in solution, s related to the nominal concentration [Xs] by the activity coefficient, γs·γs was calculated from the Debye-Hückel equation: log γs=−0.51*zs^2√μ/[1+3.8ασ√μ] where μ is the ionic strength of the solution, zs is the charge on the ion, and αs is the effective diameter of the hydrated ion in nanometers (nm). The calculated activity coefficients were γ(Cs)i=0.70, γ(Ca)e=0.331, γ(Na)i=0.75 and γ(Na)e=0.73. The liquid junction potentials were measured using a salt bridge as described by Neher (Neher 1992) and these measurements agreed within 3 mV to those calculated by the JPCalc program (P. Barry) within Clampex (Axon Instruments, Union City, Calif.).
Reversal potentials of the NaChBac mutants were measured under bi-ionic conditions as described in the Methods. […] The average peak current amplitude measured at 0 mV obtained in 10 mM Ca^2+ Tyrode's solution or in 105 mM Ca^2+ solution is shown in FIG. 7B and normalized to the current amplitude measured in 10 mM Ca^2+ solution (FIG. 7C).
Relative permeability (PCa/PNa) was calculated as described in the Methods and Table 1. Since PCa/PNa had not been described for native Nav channels under these specific conditions, we also measured the relative permeability for SKM1, a skeletal muscle Na^+-selective channel (SKM1; Kraner, Rich et al. 1998) was expressed in COS and CHO cells and examined under identical conditions as NaChBac and similar to its mutants; Table 1).

NaChBac, sequence (Q9KCR8 1-274 S273L): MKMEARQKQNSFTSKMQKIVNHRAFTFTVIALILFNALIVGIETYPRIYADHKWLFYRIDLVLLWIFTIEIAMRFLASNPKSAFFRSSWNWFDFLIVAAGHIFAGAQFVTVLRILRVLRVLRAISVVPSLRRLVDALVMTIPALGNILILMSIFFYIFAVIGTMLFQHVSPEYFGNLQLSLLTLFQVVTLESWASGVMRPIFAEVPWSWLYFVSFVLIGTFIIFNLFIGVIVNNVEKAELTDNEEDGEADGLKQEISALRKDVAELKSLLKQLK

Row | Molecule | IC50 (NaChBac) [µM] | block of INaChBac (NaChBac) | also measured
1 | [Co+2] [Co^2+] |  |  | reduction of the channel current (NaChBac): reduced the channel current to various degrees
2 | [Ni+2] [Ni^2+] |  |  | IC50 (NaChBac; read-out: concentration of agent needed to block INaChBac by 50% (IC50)): 720 µM
3 | COCC(=O)O[C@]1(CCN(C)CCCc2nc3ccccc3[nH]2)CCc2cc(F)ccc2[C@@H]1C(C)C [mibefradil] | 22 |  | sensitivity of INaChBac to the blocker (figure legend) (NaChBac): relatively insensitive
4 | ω-Agatoxin IVA |  | ineffective | 
5 | [Cd+2] [Cd^2+] |  |  | reduction of the channel current (NaChBac): reduced the channel current to various degrees
6 | COC(=O)C1=C(C)NC(C)=C(C(=O)OC)C1c1ccccc1[N+](=O)[O-] [nifedipine, Nifedipine] | 2.2 |  | 
7 | COCCOC(=O)C1=C(C)NC(C)=C(C(=O)OC(C)C)C1c1cccc([N+](=O)[O-])c1 (stereo not drawn) [nimodipine] | 1 |  | 
8 | ω-Conotoxin GVIA |  | ineffective | 
9 | NC1=N[C@H](O)[C@H]2[C@H]3O[C@]4(O)O[C@@H]([C@@H](O)[C@@]2(N1)[C@@H]4O)[C@]3(O)CO [tetrodotoxin, Tetrodotoxin] |  | completely insensitive | sensitivity of INaChBac to the blocker (figure legend) (NaChBac): insensitive
10 | SKM1: skeletal muscle Na+ channel SKM1 (M26643), used in comparison to NaChBac [reference compound] |  |  | PCa/PNa [1]: 0.32 ± 0.07 (n = 8)^c
